Experimental data as given in the NIST ThermoML archive (doi:10.1016/j.tca.2010.09.004).

Experiment: xn = mol fraction of the nth substance listed
Conditions: 101 kPa, Liquid; for speed of sound: Sing-around technique in a fixed-path interferometer; for mass density: Vibrating tube method

CCCCNCCCC [dibutylamine] + CCC(C)=O
Conditions	mass density [kg/m3]	speed of sound [m/s]
293.15 K, x2 = 0.0568	760.739	1258.2
293.15 K, x2 = 0.1152	762.014	1255
293.15 K, x2 = 0.1488	762.814	1252.9
293.15 K, x2 = 0.1968	764.024	1250.3
293.15 K, x2 = 0.2539	765.57	1247.2
293.15 K, x2 = 0.3056	767.093	1244.4
293.15 K, x2 = 0.3564	768.675	1241.6
293.15 K, x2 = 0.4105	770.501	1238.7
293.15 K, x2 = 0.4545	772.103	1236.4
293.15 K, x2 = 0.5005	773.872	1234
293.15 K, x2 = 0.5553	776.145	1231.1
293.15 K, x2 = 0.6022	778.277	1228.9
293.15 K, x2 = 0.6554	780.87	1225.8
293.15 K, x2 = 0.7036	783.444	1223.3
293.15 K, x2 = 0.7554	786.435	1220.8
293.15 K, x2 = 0.8022	789.404	1218.7
293.15 K, x2 = 0.8598	793.411	1216.3
293.15 K, x2 = 0.9001	796.544	1215
293.15 K, x2 = 0.9513	800.881	1213.5
298.15 K, x2 = 0.0681	756.775	1237.3
298.15 K, x2 = 0.1038	757.539	1235.3
298.15 K, x2 = 0.1625	758.95	1232
298.15 K, x2 = 0.2034	759.972	1229.9
298.15 K, x2 = 0.2603	761.475	1226.7
298.15 K, x2 = 0.3112	762.929	1223.8
298.15 K, x2 = 0.3523	764.175	1221.6
298.15 K, x2 = 0.3937	765.506	1219.4
298.15 K, x2 = 0.442	767.105	1216.6
298.15 K, x2 = 0.5018	769.396	1213.3
298.15 K, x2 = 0.5455	771.147	1211
298.15 K, x2 = 0.6036	773.698	1207.7
298.15 K, x2 = 0.6514	775.963	1205.2
298.15 K, x2 = 0.7003	778.472	1202.7
298.15 K, x2 = 0.7473	781.05	1200.3
298.15 K, x2 = 0.7978	784.142	1197.9
298.15 K, x2 = 0.8456	787.356	1195.9
298.15 K, x2 = 0.9022	791.581	1193.7
298.15 K, x2 = 0.9482	795.385	1192.3
303.15 K, x2 = 0.0621	752.548	1218.9
303.15 K, x2 = 0.1098	753.539	1216.1
303.15 K, x2 = 0.1666	754.759	1212.6
303.15 K, x2 = 0.2074	755.736	1210.3
303.15 K, x2 = 0.2593	757.08	1207.2
303.15 K, x2 = 0.309	758.454	1204.7
303.15 K, x2 = 0.3551	759.79	1202
303.15 K, x2 = 0.4045	761.368	1199.3
303.15 K, x2 = 0.4566	763.133	1196.4
303.15 K, x2 = 0.4957	764.551	1194.1
303.15 K, x2 = 0.5402	766.282	1191.6
303.15 K, x2 = 0.6005	768.842	1188.2
303.15 K, x2 = 0.6493	771.091	1185.6
303.15 K, x2 = 0.7004	773.646	1182.9
303.15 K, x2 = 0.7486	776.288	1180.5
303.15 K, x2 = 0.8005	779.398	1177.9
303.15 K, x2 = 0.8456	782.362	1175.9
303.15 K, x2 = 0.899	786.254	1173.7
303.15 K, x2 = 0.953	790.578	1172

CCCNCCC [dipropylamine] + CCC(C)=O
Conditions	mass density [kg/m3]	speed of sound [m/s]
293.15 K, x2 = 0.0539	740.359	1208
293.15 K, x2 = 0.1021	742.443	1207.3
293.15 K, x2 = 0.1497	744.612	1206.7
293.15 K, x2 = 0.1982	746.936	1206.2
293.15 K, x2 = 0.2459	749.311	1205.7
293.15 K, x2 = 0.2983	752.034	1205.2
293.15 K, x2 = 0.3504	754.874	1204.9
293.15 K, x2 = 0.4012	757.757	1204.6
293.15 K, x2 = 0.4495	760.619	1204.3
293.15 K, x2 = 0.5068	764.2	1204.3
293.15 K, x2 = 0.5551	767.388	1204.4
293.15 K, x2 = 0.6014	770.563	1204.5
293.15 K, x2 = 0.6568	774.567	1204.8
293.15 K, x2 = 0.6968	777.603	1205.1
293.15 K, x2 = 0.7555	782.275	1205.9
293.15 K, x2 = 0.8009	786.111	1206.6
293.15 K, x2 = 0.8573	791.158	1207.8
293.15 K, x2 = 0.901	795.276	1208.9
293.15 K, x2 = 0.9479	799.908	1210.3
298.15 K, x2 = 0.0592	736.042	1186.6
298.15 K, x2 = 0.1027	737.924	1185.9
298.15 K, x2 = 0.1509	740.108	1185.2
298.15 K, x2 = 0.2001	742.441	1184.7
298.15 K, x2 = 0.2446	744.623	1184.2
298.15 K, x2 = 0.2958	747.263	1183.8
298.15 K, x2 = 0.3545	750.41	1183.3
298.15 K, x2 = 0.4003	753	1183.2
298.15 K, x2 = 0.4625	756.591	1182.5
298.15 K, x2 = 0.5006	759.04	1182.9
298.15 K, x2 = 0.5539	762.376	1182.7
298.15 K, x2 = 0.5992	765.587	1183.2
298.15 K, x2 = 0.6474	769.011	1183.4
298.15 K, x2 = 0.6987	772.61	1183.5
298.15 K, x2 = 0.7531	777.151	1184.6
298.15 K, x2 = 0.8048	781.469	1185.4
298.15 K, x2 = 0.8557	785.991	1186.6
298.15 K, x2 = 0.9041	790.463	1188
298.15 K, x2 = 0.9471	794.714	1189.1
303.15 K, x2 = 0.0658	731.678	1165.9
303.15 K, x2 = 0.0988	733.107	1165.4
303.15 K, x2 = 0.1106	733.626	1165.2
303.15 K, x2 = 0.2146	738.432	1164.1
303.15 K, x2 = 0.2595	740.626	1163.5
303.15 K, x2 = 0.3098	743.197	1163.1
303.15 K, x2 = 0.363	746.053	1162.8
303.15 K, x2 = 0.4131	748.859	1162.5
303.15 K, x2 = 0.457	751.472	1162.4
303.15 K, x2 = 0.5154	755.069	1162.3
303.15 K, x2 = 0.5554	757.601	1162.4
303.15 K, x2 = 0.6081	761.161	1162.6
303.15 K, x2 = 0.6657	765.248	1163
303.15 K, x2 = 0.7041	768.129	1163.5
303.15 K, x2 = 0.7517	771.855	1164
303.15 K, x2 = 0.8032	776.094	1164.8
303.15 K, x2 = 0.8513	780.312	1166.1
303.15 K, x2 = 0.8958	784.355	1167
303.15 K, x2 = 0.9448	789.085	1168.6

CCN(CC)CC [triethylamine] + CCC(C)=O
Conditions	mass density [kg/m3]	speed of sound [m/s]
293.15 K, x2 = 0.0684	730.666	1134.5
293.15 K, x2 = 0.1169	733.08	1136
293.15 K, x2 = 0.1627	735.417	1138
293.15 K, x2 = 0.2218	738.705	1140.6
293.15 K, x2 = 0.2686	741.43	1143
293.15 K, x2 = 0.3141	744.214	1145.5
293.15 K, x2 = 0.3549	746.818	1147.9
293.15 K, x2 = 0.4154	750.867	1151.7
293.15 K, x2 = 0.4636	754.264	1155
293.15 K, x2 = 0.5054	757.343	1158.2
293.15 K, x2 = 0.5572	761.332	1162.3
293.15 K, x2 = 0.61	765.576	1166.7
293.15 K, x2 = 0.6519	769.122	1170.6
293.15 K, x2 = 0.7051	773.808	1175.7
293.15 K, x2 = 0.7603	778.962	1181.4
293.15 K, x2 = 0.8057	783.447	1186.5
293.15 K, x2 = 0.8586	788.929	1192.8
293.15 K, x2 = 0.9019	793.679	1198.3
293.15 K, x2 = 0.9451	798.586	1204.1
298.15 K, x2 = 0.0709	725.999	1112.7
298.15 K, x2 = 0.1149	728.152	1114.2
298.15 K, x2 = 0.158	730.378	1115.9
298.15 K, x2 = 0.2181	733.668	1118.5
298.15 K, x2 = 0.261	736.151	1120.7
298.15 K, x2 = 0.3203	739.738	1123.9
298.15 K, x2 = 0.3605	742.292	1126.3
298.15 K, x2 = 0.4159	745.987	1129.9
298.15 K, x2 = 0.4607	749.113	1133
298.15 K, x2 = 0.5106	752.756	1136.7
298.15 K, x2 = 0.5701	757.323	1141.5
298.15 K, x2 = 0.6039	760.048	1144.5
298.15 K, x2 = 0.66	764.735	1149.5
298.15 K, x2 = 0.7122	769.362	1154.6
298.15 K, x2 = 0.7604	773.883	1159.8
298.15 K, x2 = 0.8023	777.983	1164.4
298.15 K, x2 = 0.8437	782.252	1169.6
298.15 K, x2 = 0.8921	787.444	1175.7
298.15 K, x2 = 0.9456	793.453	1182.8
303.15 K, x2 = 0.0686	721.221	1092.2
303.15 K, x2 = 0.1149	723.47	1093.7
303.15 K, x2 = 0.1643	726.011	1095.6
303.15 K, x2 = 0.2101	728.487	1097.6
303.15 K, x2 = 0.2639	731.565	1100.3
303.15 K, x2 = 0.3102	734.326	1102.7
303.15 K, x2 = 0.3502	736.816	1105.1
303.15 K, x2 = 0.3869	739.189	1107.4
303.15 K, x2 = 0.45	743.482	1111.7
303.15 K, x2 = 0.5081	747.667	1116
303.15 K, x2 = 0.5652	752.023	1120.6
303.15 K, x2 = 0.6051	755.192	1124
303.15 K, x2 = 0.6561	759.446	1128.7
303.15 K, x2 = 0.7087	764.061	1134
303.15 K, x2 = 0.763	769.188	1140
303.15 K, x2 = 0.7945	772.2	1143.5
303.15 K, x2 = 0.8542	778.238	1150.5
303.15 K, x2 = 0.8987	783.012	1156.3
303.15 K, x2 = 0.95	788.818	1163.4
